This note sets out measurements from patent US20240408093A1, “HETEROBIFUNCTIONAL COMPOUNDS AND THEIR USE IN TREATING DISEASE” (HALDA THERAPEUTICS OPCO, INC., priority 2022, published 2024).

The target of one assay is T1, KRAS G12C (Homo sapiens, UniProt P01116, C118S/C51S/C80L/G12C).
T1 construct: KRAS G12C C51S C80L C118S (amino acids 1-169)
Nature of the assay: Release of effector protein ligand from heterobifunctional compounds, KRAS G12C. As to conditions: detected A1-3. It is filed as biochemical. The protocol: (§1) Exemplary heterobifunctional compounds were evaluated for the ability to release an effector protein ligand in the presence of KRAS G12C, BTK, or EGFR T790M L858R target proteins.
(§2) Samples for mass spectrometry for KRAS G12C, BTK, and EGFR T790M L858R were prepared as described above for the intact mass spectrometry target engagement experiment, respectively, except rather than flash-freezing, 20 μL of sample was quenched with 50 μL of 100% acetonitrile. As well, a buffer-only control was used to detect latent release of effector protein ligand analyte. Internal standard (IS) solution consisted of 200 ng/mL propranolol and 50 ng/mL diclofenac in methanol:water 1:1 (v/v). A 4-point calibration curve (calibration standard (CS)) consisting of each analyte was made at final concentrations of 3 nM, 30 nM, 300 nM, and 3000 nM. Unknown samples were diluted such that the unknown analyte concentration was in the linear range of the calibration curve.
(§3) Samples for all proteins were prepared and analyzed from the following:
(§4) Samples were further analyzed with AB Sciex Triple Quad 5500 system coupled with Shimadzu Prominence HPLC.

Assay [1] deals with T2, KRAS G12C C51S C80L C118S (amino acids 1-169) (Homo sapiens, UniProt P01116, C118S/C51S/C80L/G12C).
T2 construct: KRAS G12C C51S C80L C118S (amino acids 1-169)
Nature of the assay: Intact mass spec target engagement, KRAS G12C. It is filed as binding. As to conditions: 24 hours post-reaction; 5 μM KRAS G12C, 50 μM compound. How it is done: (§5) Exemplary heterobifunctional compounds were evaluated for intact mass spectrometry target engagement against KRAS G12C, BTK, or EGFR T790M L858R (amino acids 669-1011; Accession Number NP_005219.2), separately.
(§6) KRAS G12C: Samples were prepared using 5 μM of KRAS G12C C51S C80L C118S (amino acids 1-169) and 50 μM of heterobifunctional compound in a buffer containing 20 mM HEPES pH 7.5, 150 mM NaCl, and 1 mM TCEP. Protein was incubated with heterobifunctional compound at RT or 37° C. for the given amounts of time then flash-frozen and stored at −80° C. until analysis. Samples were transferred to HPLC vials and injected into Dionex UltiMate 3000 FLM HPLC system with a proprietary column (2.1×50 mm, 5 μm, 1000 Å) at 0.3 mL/minute in a column compartment at 50° C. and run on a Q Exactive Hybrid Quadrupole-Orbitrap Mass Spectrometer. Ion Max source with HESI-II probe were used, with a source voltage of 3.5 kV.
(§7) Results showing ability of exemplary heterobifunctional compounds to generate a modified target protein via intact mass spectrometry are shown in Table 13 below. The amount of different components identified by mass spectrometry at 24 hours post-reaction are listed in Table 14, wherein the different components include: • Un-modified Protein—this is starting protein material (e.g., KRAS G12C, BTK, or EGFR T790M L858R) that remained unchanged in the experiment. • Elimination-Conjugate Product—this is a conjugate formed by reaction of protein with the heterobifunctional compound to form a protein conjugate of the following general formula: […]
(§8) Exemplary Other Material can include, for example, residual impurities in the protein starting material used to conduct the experiment.

The next assay deals with T3, BTK (Homo sapiens, UniProt Q06187).
T3 construct: BTK (amino acids 387-659)
Nature of the assay: Release of effector protein ligand from heterobifunctional compounds, BTK. In kind it is biochemical. The note with it: detected A1-3. The protocol:
as §1, §2, §3, §4

The target of assay [2] is T4, BTK (amino acids 387-659) (Homo sapiens, UniProt Q06187).
T4 construct: BTK (amino acids 387-659)
Nature of the assay: Intact mass spec target engagement, BTK. In kind it is binding. As to conditions: 24 hours post-reaction; 2 μM BTK, 20 μM compound. The protocol: as §5
as §6, with “BTK: Samples” for “KRAS G12C: Samples”, “using 2” for “using 5”, “of BTK” for “of KRAS G12C C51S C80L C118S”, “acids 387-659)” for “acids 1-169)”, “and 20” for “and 50”, “NaCl,” for “NaCl, and”
as §7, §8

Assay [3] addresses T5, full-length BTK (amino acids 1-659) (Homo sapiens, UniProt Q06187).
T5 construct: full-length BTK (amino acids 1-659); host or cells: mammalian cells (HEK-293)
Nature of the assay: KdELECT binding assay, BTK. How it is done: Exemplary compounds were tested for ability to bind to full-length BTK (amino acids 1-659; Accession Number NP_000052.1) expressed from mammalian cells. Compounds were tested using the KdELECT assay.
Kinase-tagged T7 phage strains were prepared in an E. coli host derived from the BL21 strain. E. coli were grown to log-phase and infected with T7 phage and incubated with shaking at 32° C. until lysis. The lysates were centrifuged and filtered to remove cell debris. The remaining kinases were produced in HEK-293 cells and subsequently tagged with DNA for qPCR detection. Streptavidin-coated magnetic beads were treated with biotinylated small molecule ligands for 30 minutes at room temperature to generate affinity resins for kinase assays. The liganded beads were blocked with excess biotin and washed with blocking buffer (SeaBlock (Pierce), 1% BSA, 0.05% Tween 20, 1 mM DTT) to remove unbound ligand and to reduce non-specific binding. Binding reactions were assembled by combining kinases, liganded affinity beads, and test compounds in 1× binding buffer (20% SeaBlock, 0.17× PBS, 0.05% Tween 20, 6 mM DTT). Test compounds were prepared as 111× stocks in 100% DMSO. Kd values were determined using an 11-point 3-fold compound dilution series with three DMSO control points. All compounds for Kd measurements are distributed by acoustic transfer (non-contact dispensing) in 100% DMSO. The compounds were then diluted directly into the assays such that the final concentration of DMSO was 0.9%. All reactions performed in polypropylene 384-well plate. Each was a final volume of 0.02 mL. The assay plates were incubated at room temperature with shaking for 1 hour and the affinity beads were washed with wash buffer (1× PBS, 0.05% Tween 20). The beads were then re-suspended in elution buffer (1× PBS, 0.05% Tween 20, 0.5 μM nonbiotinylated affinity ligand) and incubated at room temperature with shaking for 30 minutes. The kinase concentration in the eluates was measured by qPCR.

The next assay has as its target T6, GSPT1 (Homo sapiens, UniProt P15170+Q96SW2).
T6 construct: host or cells: HEK293 LgBiT / GSPT1 HiBiT CRISPR knock-in
Nature of the assay: GSPT1 HiBiT degradation assay. In kind it is cell-based. The note with it: HEK293 LgBiT GSPT1 HiBiT cells, 6 hours. In short, it runs like this:
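HEK293 CRISPR knock-in cells expressing LgBiT and GSPT1-HiBiT were seeded at 1000 cells/well and, after 18-24 h, treated with titrated compound plus endurazine (0.5× final) at 37 °C. Luminescence read after 6 h; loss of signal reflects GSPT1 degradation, giving DC50.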
(In general: The HiBiT peptide binds its large partner to form an active luciferase.)

Assay [4] concerns HEK293 cells (ATCC CRL-1573). Nature of the assay: Cellular growth inhibition assay, HEK293 cells (Example 16). As to conditions: Homo sapiens, 72 hours, CellTiter-Glo 2.0. It is filed as cell-based. A general note: ATP-based viability assays read luminescence as a measure of living cells.
The subject of a further assay is HeLa cells (ATCC CCL-2). Nature of the assay: Cellular growth inhibition assay, HeLa cells (Example 16). As to conditions: Homo sapiens, 72 hours, CellTiter-Glo 2.0. It is filed as cell-based.

Where only a bound is given, the exact number is not on record here.

Usually Kd stands for the constant that tells how readily two partners part at equilibrium. In general, DC50 refers to the concentration giving 50% degradation. One may read the GI50 as the concentration giving 50% growth inhibition.

T6 sequence (P15170 whole entry): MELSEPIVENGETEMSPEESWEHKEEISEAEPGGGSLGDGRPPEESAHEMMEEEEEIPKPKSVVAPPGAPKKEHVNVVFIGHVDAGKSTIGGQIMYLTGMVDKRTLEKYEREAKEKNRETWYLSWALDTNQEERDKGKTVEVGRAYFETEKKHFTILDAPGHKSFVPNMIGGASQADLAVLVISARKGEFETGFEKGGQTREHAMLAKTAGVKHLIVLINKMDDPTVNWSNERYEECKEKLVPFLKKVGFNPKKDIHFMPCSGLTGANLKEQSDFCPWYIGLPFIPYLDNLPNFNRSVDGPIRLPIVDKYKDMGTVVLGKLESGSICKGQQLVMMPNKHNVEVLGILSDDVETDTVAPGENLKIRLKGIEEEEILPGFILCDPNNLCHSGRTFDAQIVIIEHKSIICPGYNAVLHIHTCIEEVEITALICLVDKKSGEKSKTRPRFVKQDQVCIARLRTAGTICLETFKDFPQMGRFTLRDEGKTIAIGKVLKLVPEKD
T6 sequence (Q96SW2 whole entry): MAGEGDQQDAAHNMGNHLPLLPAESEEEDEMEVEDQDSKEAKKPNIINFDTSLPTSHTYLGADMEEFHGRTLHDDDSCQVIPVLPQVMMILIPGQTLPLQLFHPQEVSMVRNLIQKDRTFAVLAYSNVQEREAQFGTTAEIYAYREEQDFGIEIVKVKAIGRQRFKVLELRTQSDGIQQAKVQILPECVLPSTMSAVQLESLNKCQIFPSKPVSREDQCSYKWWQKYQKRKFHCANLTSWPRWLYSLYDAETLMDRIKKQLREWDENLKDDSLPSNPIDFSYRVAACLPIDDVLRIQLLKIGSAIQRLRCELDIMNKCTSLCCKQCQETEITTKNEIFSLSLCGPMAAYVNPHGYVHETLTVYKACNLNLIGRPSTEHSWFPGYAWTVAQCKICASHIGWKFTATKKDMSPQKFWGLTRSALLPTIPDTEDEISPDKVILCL
T6 sequence (Q16531 whole entry partner): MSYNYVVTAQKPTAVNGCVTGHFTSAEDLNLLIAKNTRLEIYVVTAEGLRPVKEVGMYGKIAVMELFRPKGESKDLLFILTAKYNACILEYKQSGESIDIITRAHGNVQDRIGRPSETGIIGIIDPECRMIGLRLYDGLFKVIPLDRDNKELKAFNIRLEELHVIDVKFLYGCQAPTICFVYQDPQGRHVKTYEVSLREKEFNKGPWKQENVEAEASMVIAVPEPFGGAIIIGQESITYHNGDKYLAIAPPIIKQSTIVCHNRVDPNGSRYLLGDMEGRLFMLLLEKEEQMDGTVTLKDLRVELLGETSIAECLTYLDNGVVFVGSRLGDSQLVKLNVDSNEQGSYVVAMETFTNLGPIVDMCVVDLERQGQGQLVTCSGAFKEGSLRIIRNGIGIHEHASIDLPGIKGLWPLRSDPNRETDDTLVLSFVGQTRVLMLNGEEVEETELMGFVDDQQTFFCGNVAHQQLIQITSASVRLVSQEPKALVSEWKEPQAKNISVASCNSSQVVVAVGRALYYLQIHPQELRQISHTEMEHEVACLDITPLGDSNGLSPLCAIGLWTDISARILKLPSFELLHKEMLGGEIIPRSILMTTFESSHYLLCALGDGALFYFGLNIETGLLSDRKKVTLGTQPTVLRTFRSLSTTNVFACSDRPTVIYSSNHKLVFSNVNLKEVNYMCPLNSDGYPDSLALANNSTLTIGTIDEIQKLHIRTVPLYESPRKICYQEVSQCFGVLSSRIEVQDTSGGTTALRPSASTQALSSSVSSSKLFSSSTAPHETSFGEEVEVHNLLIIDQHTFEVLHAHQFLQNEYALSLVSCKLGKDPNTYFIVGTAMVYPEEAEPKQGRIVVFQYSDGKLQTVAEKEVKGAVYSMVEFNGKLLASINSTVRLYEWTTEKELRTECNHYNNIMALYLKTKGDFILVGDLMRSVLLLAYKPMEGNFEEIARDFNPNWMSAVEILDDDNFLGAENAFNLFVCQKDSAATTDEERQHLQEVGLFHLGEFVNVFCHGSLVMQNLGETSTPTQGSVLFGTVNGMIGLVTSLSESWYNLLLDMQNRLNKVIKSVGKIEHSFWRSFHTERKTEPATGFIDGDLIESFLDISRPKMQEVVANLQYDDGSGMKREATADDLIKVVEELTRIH
T5 sequence (Q06187 whole entry, the tested form may be a part): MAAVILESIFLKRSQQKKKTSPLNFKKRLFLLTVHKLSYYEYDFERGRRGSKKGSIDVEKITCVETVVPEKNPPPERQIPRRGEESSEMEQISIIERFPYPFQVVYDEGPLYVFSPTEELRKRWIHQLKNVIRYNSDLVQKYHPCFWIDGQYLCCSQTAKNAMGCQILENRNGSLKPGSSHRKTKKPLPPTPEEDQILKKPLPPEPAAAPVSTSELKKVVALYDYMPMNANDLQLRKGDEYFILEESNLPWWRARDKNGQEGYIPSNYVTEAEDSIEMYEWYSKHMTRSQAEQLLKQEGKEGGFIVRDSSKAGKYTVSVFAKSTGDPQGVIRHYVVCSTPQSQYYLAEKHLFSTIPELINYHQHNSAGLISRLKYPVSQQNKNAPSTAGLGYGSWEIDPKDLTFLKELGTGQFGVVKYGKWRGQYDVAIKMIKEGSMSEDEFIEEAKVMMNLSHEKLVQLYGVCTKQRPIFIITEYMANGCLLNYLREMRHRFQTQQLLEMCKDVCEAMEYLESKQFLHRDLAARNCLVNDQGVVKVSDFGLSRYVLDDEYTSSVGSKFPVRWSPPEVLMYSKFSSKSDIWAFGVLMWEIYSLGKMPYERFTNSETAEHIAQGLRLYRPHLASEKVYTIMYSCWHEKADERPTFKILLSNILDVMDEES
T4 sequence (Q06187 387-659): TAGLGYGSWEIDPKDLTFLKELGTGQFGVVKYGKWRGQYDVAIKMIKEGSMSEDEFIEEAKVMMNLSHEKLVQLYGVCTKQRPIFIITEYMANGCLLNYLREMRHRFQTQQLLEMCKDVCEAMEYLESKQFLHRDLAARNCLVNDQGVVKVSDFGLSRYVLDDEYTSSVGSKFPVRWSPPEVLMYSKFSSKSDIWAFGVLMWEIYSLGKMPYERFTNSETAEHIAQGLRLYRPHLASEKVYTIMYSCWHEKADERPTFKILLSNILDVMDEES
T3 sequence (Q06187 387-659): as above

On to `C=C(Cn1cc(CNc2cc(N3CCCC[C@H]3CCO)nc3c(CC)cnn23)ccc1=O)C(=O)N1CCN(c2nc(OC[C@@H]3CCCN3C)nc3c2CCN(c2cccc4cccc(Cl)c24)C3)C[C@@H]1CC#N` [Compound A1-2], for which the “Concentration of Effector Protein Ligand” value at KRAS G12C (Matrix Buffer + Protein (KRAS G12C), Time 0 h) is given as 328 nM; on KRAS G12C (Matrix Buffer + Protein (KRAS G12C), Time 2 h), 556 nM; on KRAS G12C (Matrix Buffer + Protein (KRAS G12C), Time 8 h), 1170 nM; on KRAS G12C (Matrix Buffer + Protein (KRAS G12C), Time 24 h) it was 2020 nM; at KRAS G12C (Matrix Buffer, Time 0 h), 55.8 nM; at KRAS G12C (Matrix Buffer, Time 2 h) it was 85.3 nM. For the same compound, the “Concentration of Effector Protein Ligand” value on KRAS G12C (Matrix Buffer, Time 8 h) is 166 nM; at KRAS G12C (Matrix Buffer, Time 24 h), 406 nM. Besides, in assay [1], the “Percent Other Material” value turned out to be 10%. The “Percent of Addition-Conjugate Product” value in assay [1] is 5%. In addition, in assay [1], the “Percent of Elimination-Conjugate Product” value came out at 83%. In addition, the “Percent of Un-modified Protein” value in assay [1] stood at 2%.

Consider `C=C(Cn1cc(CNc2cc(N3CCCC[C@H]3CCO)nc3c(CC)cnn23)ccc1=O)C(=O)N1CCC[C@@H](n2nc(-c3ccc(Oc4ccccc4)cc3)c3c(N)ncnc32)C1` [Compound A1-4], for which the “Concentration of Effector Protein Ligand” value stood at 17.8 nM at BTK (Matrix Buffer + Protein (BTK), Time 0 h); 281 nM on BTK (Matrix Buffer + Protein (BTK), Time 1 h); 506 nM on BTK (Matrix Buffer + Protein (BTK), Time 4 h); 460 nM on BTK (Matrix Buffer + Protein (BTK), Time 22 h); 4.16 nM on BTK (Matrix Buffer, Time 0 h); 4 nM on BTK (Matrix Buffer, Time 1 h). Besides, the “Concentration of Effector Protein Ligand” value on BTK (Matrix Buffer, Time 4 h) is reported as 4.49 nM; on BTK (Matrix Buffer, Time 22 h), 10.4 nM. For the same compound, the “Percent Other Material” value in assay [2] amounted to 0%. In addition, in assay [2], the “Percent of Addition-Conjugate Product” value was 24%. The “Percent of Elimination-Conjugate Product” value in assay [2] is 72%. In assay [2], the “Percent of Un-modified Protein” value was 4%.

In turn, `C=C(CN1C(=O)CCC(N2Cc3cc(CNC(=O)Nc4ccc(C)c(Cl)c4)ccc3C2=O)C1=O)C(=O)N1CCC[C@@H](n2nc(-c3ccc(Oc4ccccc4)cc3)c3c(N)ncnc32)C1` (stereo partly drawn) [Compound I-3, 1-[[2-[1-[2-[(3R)-3-[4-amino-3-(4-phenoxyphenyl)pyrazolo[3,4-d]pyrimidin-1-yl]piperidine-1-carbonyl]allyl]-2,6-dioxo-3-piperidyl]-1-oxo-isoindolin-5-yl]methyl]-3-(3-chloro-4-methyl-phenyl)urea] showed a Kd in assay [3] of 500 to 2500 nM. The 50% degradation concentration (DC50) at GSPT1 was greater than 2500 nM.

As for `C=C(CN(Cc1ccc2c(c1)CN(C1CCC(=O)NC1=O)C2=O)C(=O)Nc1ccc(C)c(Cl)c1)C(=O)N1CCC[C@@H](n2nc(-c3ccc(Oc4ccccc4)cc3)c3c(N)ncnc32)C1` (some centres unmarked) [Compound I-31], the GI50 (in assay [4]; in the assay with HeLa cells (ATCC CCL-2)) was greater than 10000 nM in each case. In assay [3], this compound returned a Kd of 500 to 2500 nM. Moreover, the DC50 at GSPT1 is greater than 2500 nM.

`C=C(CN(C(=O)NCc1ccc2c(c1)CN(C1CCC(=O)NC1=O)C2=O)c1ccc(C(F)(F)F)c(Cl)c1)C(=O)N1CCC[C@@H](n2nc(-c3ccc(Oc4ccccc4)cc3)c3c(N)ncnc32)C1` (some centres unmarked) [Compound I-38]: the GI50 (in assay [4]; in the assay with HeLa cells (ATCC CCL-2)) was greater than 10000 nM in each case. Besides, in assay [3], the Kd is 500 to 2500 nM. This compound gave a DC50 at GSPT1 greater than 2500 nM.

On to `C=C(COc1cc(Cl)cc(NC(=O)NCc2ccc3c(c2)CN(C2CCC(=O)NC2=O)C3=O)c1)C(=O)N1CCC[C@@H](n2nc(-c3ccc(Oc4ccccc4)cc3)c3c(N)ncnc32)C1` (some centres unmarked) [Compound I-114], for which the GI50 lay in the range of 500 to 1500 nM in assay [4] and 1500 to 10000 nM with HeLa cells (ATCC CCL-2). The compound further returned a Kd in assay [3] of less than 50 nM. On GSPT1, the half-maximal degradation concentration (DC50) was 500 to 2500 nM.

With `C=C(COc1ccc(Cl)cc1NC(=O)NCc1ccc2c(c1)CN(C1CCC(=O)NC1=O)C2=O)C(=O)N1CCC[C@@H](n2nc(-c3ccc(Oc4ccccc4)cc3)c3c(N)ncnc32)C1` (some centres unmarked) [I-32], the GI50 (in assay [4]; in the assay with HeLa cells (ATCC CCL-2)) was 500 to 1500 nM throughout. The Kd in assay [3] was in the range of 50 to 500 nM.
